Test results from patent US20260272881A1, “QTX125 DRUG FORMULATIONS” (Quimatryx, S.L., priority 2022, published 2026).
Converted amounts (≈) assume the structure as drawn.

Key:
rats, mice and dogs = conditions: range of animal species including rats; cited from earlier work
[1] = Solubility trials of QTX125 formulations (mixed 24 hours at room temperature); format: physicochemical; conditions: aqueous HPβCD solution (HPβCD as only excipient), aqueous with cosolvent or surfactant or cyclodextrin, thermodynamic from solid; with HPβCD alone (Example 1.3)
Protocol: The parameters required for the HPLC method used to determine the concentration of QTX125 in solution is set out below.
HPLC determination of the percentage of QTX125 in the solutions below was determined using the protocols set out above.
Assay (% LC) was determined by comparing the area of the peak for QTX125 to a calibration curve determined by running samples of known concentration of QTX125 (standards) on the HPLC.

[2] = Genotoxicity (clastogenicity, aneugenicity)
[3] = Pharmacokinetic properties (half-lives, distribution volumes); format: in vivo; conditions: compared with other histone deacetylase inhibitors
[4] = Solubility in water and stability in solution of QTX125 (background); format: physicochemical
HDAC 6 = target: T1, HDAC 6 (Homo sapiens, UniProt Q9UBN7); conditions: cited from earlier work
T1 sequence (Q9UBN7 1-1215): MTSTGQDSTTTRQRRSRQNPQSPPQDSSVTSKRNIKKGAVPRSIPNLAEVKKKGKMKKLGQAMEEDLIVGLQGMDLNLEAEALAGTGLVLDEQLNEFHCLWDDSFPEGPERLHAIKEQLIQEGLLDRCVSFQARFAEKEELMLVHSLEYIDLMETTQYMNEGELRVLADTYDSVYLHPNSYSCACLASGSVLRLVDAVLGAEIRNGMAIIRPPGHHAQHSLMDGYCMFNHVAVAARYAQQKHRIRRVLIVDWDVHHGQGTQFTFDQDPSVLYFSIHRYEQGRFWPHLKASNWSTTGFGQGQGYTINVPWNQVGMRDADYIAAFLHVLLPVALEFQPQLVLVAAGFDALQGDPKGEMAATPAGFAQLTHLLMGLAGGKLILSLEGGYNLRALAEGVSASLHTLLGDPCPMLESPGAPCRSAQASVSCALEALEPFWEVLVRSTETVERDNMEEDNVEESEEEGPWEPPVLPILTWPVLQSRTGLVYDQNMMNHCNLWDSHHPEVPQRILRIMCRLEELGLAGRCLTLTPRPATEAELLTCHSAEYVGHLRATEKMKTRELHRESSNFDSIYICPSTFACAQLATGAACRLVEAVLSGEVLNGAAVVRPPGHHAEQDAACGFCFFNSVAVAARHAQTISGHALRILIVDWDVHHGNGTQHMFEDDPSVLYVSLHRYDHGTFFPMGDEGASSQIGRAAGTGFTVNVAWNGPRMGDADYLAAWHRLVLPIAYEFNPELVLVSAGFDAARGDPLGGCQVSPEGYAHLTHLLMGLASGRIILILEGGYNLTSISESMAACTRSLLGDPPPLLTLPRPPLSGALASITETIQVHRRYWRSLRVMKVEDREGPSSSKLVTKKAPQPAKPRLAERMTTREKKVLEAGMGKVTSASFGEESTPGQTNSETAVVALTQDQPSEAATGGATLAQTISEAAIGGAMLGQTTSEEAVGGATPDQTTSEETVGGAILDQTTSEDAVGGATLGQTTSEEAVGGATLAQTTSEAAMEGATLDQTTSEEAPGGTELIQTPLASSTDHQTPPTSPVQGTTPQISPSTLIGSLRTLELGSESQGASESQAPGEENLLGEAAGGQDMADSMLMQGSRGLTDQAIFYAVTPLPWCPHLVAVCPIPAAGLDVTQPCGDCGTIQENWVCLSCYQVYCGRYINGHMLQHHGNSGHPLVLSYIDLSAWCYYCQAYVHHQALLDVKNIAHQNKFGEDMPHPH

mantle cell lymphoma = mantle cell lymphoma xenograft murine model; cited from earlier work
lung cancer = lung cancer xenograft murine model; cited from earlier work
pancreatic cancer = pancreatic cancer xenograft murine model; cited from earlier work
[5] = test system: multiple sclerosis mice models; conditions: two different multiple sclerosis mice models; cited from earlier work
[6] = hydroxamic acids such as QTX125; cited from earlier work
[7] = acute toxicity studies; cited from earlier work
mice = conditions: cited from earlier work

In the case of 2-hydroxypropyl-β-cyclodextrin, the tolerance (rats, mice and dogs) is listed as “well tolerated”.
For `O=C(NO)c1ccc(CNC(=O)c2[nH]c(-c3ccc(O)cc3)cc2-c2ccoc2)cc1` [QTX125, 3-(3-Furyl)-N-{4-[(hydroxyamino)carbonyl]benzyl}-5-(4-hydroxyphenyl)-1 Hpyrrole-2-carboxamide], the solubility at 24 h [1] was 140 µg/mL (≈ 335 µM), the “genotoxicity, in particular clastogenicity or aneugenicity” value [2] was “no evidence of genotoxicity” and the “pharmacokinetic properties (half-lives and distribution volumes)” value [3] was “higher half-lives and distribution volumes”. The stability in solution [4] was “physical and chemical instability in solution”, the “HDAC 6 inhibition” value (HDAC 6) was “highly selective and highly potent” and the antitumoral efficacy (mantle cell lymphoma) was “high antitumoral efficacy”. For the same compound, the antitumoral efficacy (lung cancer) was “high antitumoral efficacy”, the antitumoral efficacy (pancreatic cancer) was “high antitumoral efficacy” and the efficacy [5] was “high efficacy”. The solubility in water [6] was “very low solubility in water”.
For sulfobutyl ether β cyclodextrin [SBβCD], the acute toxicity [7] is given as “no observable effects” and the renal histopathology (mice) is given as “no negative renal histopathology”.
